Laboratory results from patent US20040142882A1, “Use of glycyrrhizin and its derivatives as RANTES inducers” (priority 2002, published 2004).

How the values were obtained:
[1] = tested on: peripheral mononuclear cells; assay: RANTES induction in peripheral mononuclear cells from healthy individuals (Quantikine immunoassay of culture supernatant); type: cell-based, human
Method: Peripheral blood was collected from healthy individuals and peripheral mononuclear cells were isolated with Ficoll-Hypaque. RPMI1640 medium containing 10% FCS and antibiotics (penicillin and streptomycin) was used for culturing. After stimulating 1×10^6 cells/ml of peripheral mononuclear cells with 100 μg/ml of sodium olean-3β-hydroxy-11-oxo-12-ene-30-ate, disodium olean-9(11),12-diene-3β,30-diol-3β,30-O-dihemiphthalate, disodium olean-11,13 (18)-diene-3β,30-diol-3β,30-O-dihemiphthalate, disodium olean-3β-hydroxy-11,13(18)-diene-30-ate-3β-O-hemiphthalate, disodium olean-3β-hydroxy-11-oxo-12-ene-30-ate-3β-O-hemiphthalate, or monoammonium glycyrrhizinate for 24 hours, the amount of RANTES in the culture supernatant was measured with a Human RANTES/CCL5 Quantikine Immunoassay Kit (R&D Systems). Furthermore, the control in the drawing indicates the amount of RANTES in culture supernatant when peripheral mononuclear cells were treated with medium only.
Peripheral blood was collected from healthy subjects and peripheral mononuclear cells were isolated with Ficoll-Hypaque. 1×10^6 cells/ml of peripheral mononuclear cells were stimulated with 100 μg/ml of monoammonium glycyrrhizinate (monoammonium glycyrrhizinate will hereinafter be referred to as glycyrrhizin). Taking the time at which glycyrrhizin was added to be 0 hours, the amount of RANTES present in the culture supernatant was measured with the Human RANTES/CCL5 Quantikine Immunoassay Kit (R&D Systems) 12, 24, 48 and 72 hours later. Furthermore, the control in the drawing indicates the amount of RANTES in culture supernatant of peripheral mononuclear cells not treated with glycyrrhizin.
(§1) Peripheral blood was collected from healthy subjects and peripheral mononuclear cells were isolated with Ficoll-Hypaque. 1×10^6 cells/ml of peripheral mononuclear cells were stimulated for 24 hours with 0.1-100 μg/ml of glycyrrhizin. The amount of RANTES present in the culture supernatant was measured with the Human RANTES/CCL5 Quantikine Immunoassay Kit (R&D Systems).

IL-12Rβ2 mRNA = assay: Th1 cell induction: IL-12Rβ2 mRNA expression by RT-PCR in peripheral mononuclear cells; type: cell-based, human; conditions: 7 days, FIG. 5
Method: Peripheral blood was collected from healthy subjects and peripheral mononuclear cells were isolated with Ficoll-Hypaque. 1×10^6 cells/ml of peripheral mononuclear cells were cultured for 7 days in medium containing IL-2 (10 U/ml) and anti-IFN-γ monoclonal antibody (10 μg/ml) in the presence of 100 μg/ml of glycyrrhizin, or glycyrrhizin and anti-RANTES monoclonal antibody (10 μg/ml). After culturing, RNA was extracted from the cells, and the expression of IL-12Rβ2 mRNA, a marker for Th1 cells, was measured by RT-PCR. […] In other words, IFN-γ is not involved in the reaction used in this experiment. Furthermore, the control in the drawing indicates the degree of expression of IL-12Rβ2 mRNA in mononuclear cells when cultured without the addition of glycyrrhizin.

[2] = tested on: peripheral mononuclear cells from AIDS patients; assay: RANTES induction in peripheral mononuclear cells from AIDS patients; type: cell-based, human; conditions: 100 μg/ml, 24 hours, cells from 3 AIDS patients, FIG. 4
Method: as §1, with “3 AIDS patients (CD4 count: 215-418 cells/μl, viral load: 80,000-370,000 copies/ml)” for “healthy subjects”, “100” for “0.1-100”, “Systems). Furthermore, the control in the drawing indicates the amount of RANTES in culture supernatant of peripheral mononuclear cells not treated with glycyrrhizin.” for “Systems).”

[3] = tested on: methicillin-resistant Staphylococcus aureus (MRSA); assay: MRSA infection in SCIDbgMN mice inoculated with spleen mononuclear cells of IFN-γ knockout mice, survival; type: in vivo; conditions: 10 days
Method: Spleen mononuclear cells originated from IFN-γ knockout mice (5×10^6 cells/ml) were inoculated into SCIDbgMN mice (SCID-beige mice deficient in macrophage and neutrophil functions). A 20 mg/kg dose of glycyrrhizin was administered intraperitoneally immediately after inoculation. 2 hours later, the animals were infected through the tail vein with methicillin-resistant Staphylococcus aureus (MRSA) at a level of 5 LD50. Furthermore, a control group was infected with an equal amount of MRSA following administration of physiological saline.
Spleen mononuclear cells originated from IFN-γ knockout mice (5×10^6 cells/ml) were inoculated into SCIDbgMN mice. A 20 mg/kg dose of glycyrrhizin was administered intraperitoneally immediately after inoculation. 2 hours later, the animals were infected through the tail vein with methicillin-resistant Staphylococcus aureus (MRSA) at a level of 5 LD50. 10 μg/ml of anti-RANTES monoclonal antibody was administered subcutaneously 2 hours before, 12 hours after and 24 hours after administration of glycyrrhizin, while an equal amount of Ig was administered subcutaneously to a control group.

[4] = tested on: mononuclear cells originated from mouse spleen; assay: RANTES induction in mononuclear cells originated from mouse spleen; type: cell-based
From the text: The above results were able to be confirmed not only in humans, but also in experiments using mononuclear cells originated from mouse spleen.

HIV [5] = conditions: 150 to 225 mg (6 to 9 tablets) per day, asymptomatic carriers (AC); cited from earlier work
[6] = tested on: septicemia induced by cecal ligation and puncture (CLP); assay: Septicemia model (cecal ligation and puncture) in IFN-γ knockout mice, survival; type: in vivo; conditions: 7 days
Method: Glycyrrhizin was administered intraperitoneally to IFN-γ knockout mice at 20 mg/kg, and septicemia was induced by cecal ligation and puncture (CLP) 2 hours later.
Glycyrrhizin was administered intraperitoneally to IFN-γ knockout mice at 20 mg/kg, and septicemia was induced by CLP 2 hours later. 10 μg/ml of anti-RANTES monoclonal antibody were administered subcutaneously 2 hours before, 12 hours after and 24 hours after administration of glycyrrhizin, while an equal amount of Ig was administered subcutaneously to a control group.

HIV [7] = conditions: reported in recent years; cited from earlier work

Row | Compound | amount of RANTES induced compared with monoammonium glycyrrhizinate ([1]; 100 μg/ml compound, 24 hours, FIG. 1) | amount of RANTES in the culture supernatant ([1]; 100 μg/ml compound, 24 hours, 1×10^6 cells/ml, FIG. 1) | production of RANTES over time ([1]; 100 μg/ml, 12, 24, 48 and 72 hours, FIG. 2) | RANTES induction versus concentration ([1]; 0.1-100 μg/ml tested, 24 hours, dose dependent within 1-100 μg/ml, FIG. 3) | expression of IL-12Rβ2 mRNA (Th1 marker) with anti-RANTES monoclonal antibody (IL-12Rβ2 mRNA; 100 μg/ml glycyrrhizin plus anti-RANTES monoclonal antibody 10 μg/ml) | expression of IL-12Rβ2 mRNA (Th1 marker) (IL-12Rβ2 mRNA; 100 μg/ml, with IL-2 and anti-IFN-γ monoclonal antibody) | RANTES induction [2] | mortality rate after MRSA infection with anti-RANTES monoclonal antibody ([3]; 20 mg/kg i.p. plus anti-RANTES monoclonal antibody subcutaneously, FIG. 9) | survival rate after MRSA infection ([3]; 20 mg/kg intraperitoneally 2 hours before MRSA 5 LD50 via tail vein, FIG. 8) | RANTES induction confirmed in mouse cells [4] | survival without the onset of AIDS (HIV [5]) | mortality rate after septicemic infection with anti-RANTES monoclonal antibody ([6]; 20 mg/kg i.p. plus anti-RANTES monoclonal antibody subcutaneously, FIG. 7) | survival rate after septicemic infection ([6]; 20 mg/kg intraperitoneally 2 hours before CLP, FIG. 6) | intracellular growth of HIV (HIV [7])
1 | CC1(COC(=O)c2ccccc2C(=O)[O-])CCC2(C)CCC3(C)C(=C2C1)C=CC1C2(C)CCC(OC(=O)c4ccccc4C(=O)[O-])C(C)(C)C2CCC13C.[Na+].[Na+] (stereo not drawn) [MUN-014, disodium olean-11,13(18)-diene-3β,30-diol-3β,30-O-dihemiphthalate] | nearly equal amount | – | – | – | – | – | – | – | – | – | – | – | – | –
2 | CC1(C)[C@@H](O[C@H]2O[C@H](C(=O)O)[C@@H](O)[C@H](O)[C@H]2O[C@@H]2O[C@H](C(=O)O)[C@@H](O)[C@H](O)[C@H]2O)CC[C@]2(C)[C@H]3C(=O)C=C4[C@@H]5C[C@@](C)(C(=O)O)CC[C@]5(C)CC[C@@]4(C)[C@]3(C)CC[C@@H]12.N [GR, monoammonium glycyrrhizinate] | – | 3 ng/mL | increased with the passage of culturing time | dose dependent manner | no longer demonstrated its expression | increase in the expression of IL-12Rβ2 mRNA | RANTES was induced | increased to the same level as the control group | 75% | confirmed | ≥ 10 years | increased to the same level as the control group | 80% | inhibits the intracellular growth of HIV
